In patent US20140249143A1, “Compounds And Methods For Enhancing Innate Immune Responses” (GlaxoSmithKline LLC, priority 2011, published 2014):

Experiments:
[1] = test system: interferon stimulated genes (ISGs); experiment: Expression of interferon stimulated genes in HCV replicon cells (real time RT-PCR); assay type: cell-based
Source text: The up-regulation of interferon stimulated genes upon treatment with Example 1 was monitored by quantitative real time RT-PCR using specific primers for each gene, as shown in FIG. 3. […] Total RNA was isolated using RNeasy 96 kit (Qiagen) and converted to cDNA using High Capacity cDNA reverse transcription kit (Applied Biosystems). For real time PCR, the cDNA was used for PCR reactions using TaqMan Fast Universal PCR master mix (Applied Biosystems) and specific primers (Applied Biosystems). As housekeeping genes, actin and GAPDH were used for normalization. Data was calculated by the ΔΔCt method and fold change determined compared to DMSO-treated control samples.

ISGs and cytokines mRNA = experiment: Induction of ISGs in mice in vivo; parameters: species or system Balb/c mice
Method: Naive Balb/c mice were purchased from Charles River Laboratories (Wilmington, Mass.) and administered with murine IFNα2 (30 ug/kg) intravenously or administered with oral Example 1 (300 mg/kg in 30/70% solutol/polyethylene glycol 400). The mice were then euthanized by CO2 inhalation at 0.5, 2, 6, 8, and 24 hours for sample collection. Four mice per dose group were tested.
For RNA isolation, the blood was collected in an RNAprotect™ tube (Qiagen) and processed with RNeasy Protect™ animal blood kit (Qiagen) according to the manufacturer's protocol. To preserve RNA, 30-200 mg of tissue pieces were stored in RNAlater™ solution (Invitrogen) until use. For RNA isolation, the thawed tissues were homogenized using a TissueLyser™ system (Qiagen) and processed with RNeasy 96 Universal Tissue Kit™ (Qiagen) according to the manufacturer's protocol. To remove DNA contamination, on-plate DNase digestion was included during the RNA purification.
For real time RT-PCR, cDNA was made using High Capacity cDNA Reverse Transcription Kit™ (Applied Biosystems). Gene expression was measured using TaqMan Fast Universal PCR Master Mix™ (Applied Biosystems) and gene specific probes and murine primers in HT7900 FAST System™ (Invitrogen). As housekeeping genes, actin and GAPDH were used for normalization. Data was calculated by the ΔΔCt method and fold change determined compared to non-treated control samples.

STAT1 phosphorylation = STAT1 phosphorylation immunoblot in HCV replicon cells; assay type: cell-based
Method: IFNα (100 U/ml) and DMSO were included as controls. The total cell lysates were analyzed on a 4-20% SDS-PAGE gradient gel and followed by immunoblotting using anti-phopho STAT1 antibody (Cell Signaling). The level of actin was monitored as a loading control. The bands were visualized by the alkaline phosphatase activity conjugated with the secondary antibody (Promega) using ProtoBlot II AP System™ (Promega).

[2] = test system: ISG56 (Interferon-Stimulated Gene 56) promoter ISRE; experiment: ISG56 luciferase reporter assay in HEK 293 cells; assay type: cell-based; conditions: Homo sapiens, HEK293; HEK 293 reporter, 24 hours; 100% = small molecule control test compound; read-out: ISG56 (Average Max Response) %
Method in brief: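 HEK 293 cells stably carrying a firefly luciferase reporter driven by the ISG56 promoter ISRE were incubated with compounds (11-point, 3-fold dilutions) for 24 h at 37 °C, 10,000 cells/well. Steady-Glo luminescence was normalized to DMSO and control-agonist wells, and pEC50 came from a four-parameter fit.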

[3] = test system: IFN mediated JAK/STAT pathway (ISG54 promoter); experiment: Activation of the JAK/STAT pathway in HEKBlue IFN-α/β cells (SEAP); assay type: cell-based; conditions: HEK-Blue; 24 h, QUANTI-Blue, OD 650 nm; read-out: EC50 of activation of the JAK/STAT pathway (secreted alkaline phosphatase)
Method: The cells were incubated for 24 h in the presence of several treatments (Example 1, IFNα, and IFNλ3) and the supernatants were measured for the amount of the secreted alkaline phosphatase using QUANTI-Blue™ (InvivoGen) at the optical density of 650 nm. […] The activation of the pathway by IFNα (PBL) and IFNλ3 (R&D Systems Inc.) are shown as positive controls.

Structure (SMILES): FC(F)(F)c1cc(C(F)(F)F)c2ccc3nc(-c4nnco4)cn3c2n1 [Compound 1, 2-[2,4-bis(trifluoromethyl)imidazo[1,2-a]1,8-naphthyridin-8-yl]-1,3,4-oxadiazole]
- induction of IFNα and β mRNA (IFNA1, IFNA2, IFNB1) ([1]; 2 μM): no induction
- induction of ISGs (ISG15, Mx1, OAS1, OAS2, CXCL10, IFIH1, STAT2) ([1]; 2 μM, time course 1.5-48 h): induction of various known ISGs
- time of maximum induction of ISGs ([1]; Example 1 2 μM, IFNα 100 U/ml): 8 h
- up-regulation of ISGs at 24 hours (ISGs and cytokines mRNA; Example 1 oral 300 mg/kg, murine IFNα2 30 ug/kg intravenously): appeared to sustain
- mRNA for Mx1, OAS1A, OAS2, CXCL10, ISG15, and IL6 (ISGs and cytokines mRNA; oral 300 mg/kg, Balb/c mice): marked increase
- time up to which phosphor-STAT1 status sustained (STAT1 phosphorylation; 2 uM): up to 24 h
- STAT1 phosphorylation (STAT1 phosphorylation; Example 1 2 uM, IFNα 100 U/ml, 1 h, 6 h, 24 h): induced STAT1 phosphorylation
- Emax [2]: 302%
- EC50 [3]: ~1 µM
